From patent publication US7598377B2, “Inhibition of phosphoinositide 3-kinase β” (AstraZeneca AB, priority 2002, dated 2009)

Tests used:
[1] = target: T1, p110α-PI3K (Homo sapiens, UniProt P42336); assay: In vitro enzyme assay, p110α immunoprecipitated from platelet lysate (Biological Example 1); assay type: biochemical; settings: Table I; read-out: inhibitory concentration, alpha
T1 construct: The α and β isoforms of the PI3K were immunoprecipitated from a platelet lysate; from tissue; host or cells: washed platelets (lysate, immunoprecipitated with anti-p110α antibody)
Experimental: (§1) For each immunoprecipitation, 1 mg of lysate was incubated with an anti-p110α (1 μg), anti-p110β (1 μg), anti-p110δ (1 μg) or anti-PI4 kinase antibody (2-5 μg) and 50 μl of a 50% slurry of protein A beads overnight at 4° C. […] For PI4 kinase assays, protein A beads-immune complexes were also washed twice with lysis buffer, prior to two washes with 1× PI4 kinase assay buffer (20 mM Hepes, pH 7.5, 10 mM MgCl2, 0.3% Triton X-100) and the addition of other assay constituents, as described above. All reactions were terminated by the addition of 100 μl 1 M HCl, 200 μl choloroform/methanol (1:1) and 500 μl 2 M KCl and lipids extracted by centrifugation at 15,000×g for 2 minutes. The production of PI3 or PI4 kinase lipid products, PtdIns(3)P and PtdIns(4)P, were confirmed through TLC analysis. The lipid spots were then removed from the TLC plate and the level of radioactivity quantified to accurately determine the level of PtdIns(3)P/PtdIns(4)P production.

[2] = target: T2, p110β-PI3K (Homo sapiens, UniProt P42338); assay: In vitro enzyme assay, p110β immunoprecipitated from platelet lysate (Biological Example 1); assay type: biochemical; settings: Table I; for IC50: read-out: inhibitory concentration, beta
T2 construct: The α and β isoforms of the PI3K were immunoprecipitated from a platelet lysate; from tissue; host or cells: washed platelets (lysate, immunoprecipitated with anti-p110β antibody)
Experimental: as §1, with “The production of PI3 or PI4 kinase lipid products, PtdIns(3)P and PtdIns(4)P, were confirmed through TLC analysis.” left out

[3] = target: p110γ-PI3K (Homo sapiens, UniProt P48736); assay: In vitro enzyme assay, p110γ recombinant protein (Biological Example 1); assay type: biochemical; settings: Table I; read-out: inhibitory concentration, gamma
Description: Reactions were terminated and lipid products analysed as described above for the other PI 3-kinase isoforms assays.

[4] = target: T3, p110δ-PI3K (Homo sapiens, UniProt O00329); assay: In vitro enzyme assay, p110δ immunoprecipitated from platelet lysate (Biological Example 1); assay type: biochemical; settings: Table I; read-out: inhibitory concentration, delta
T3 construct: from tissue; host or cells: washed platelets (lysate, immunoprecipitated with anti-p110δ antibody)
Experimental: as §1

[5] = system: platelets on immobilized vWf; assay: In vitro flow studies: platelet calcium flux and adhesion on immobilized vWf; assay type: cell-based; settings: vWf matrix, shear rate gradient up to 10,000 s^−1 over 1 s
Experimental: The use of an in vitro-flow based adhesion assay enables us to simultaneously analyze platelet adhesion dynamics and activation (by monitoring cytosolic calcium flux) on immobilized von Willebrand factor (vWf). Briefly, isolated platelets are perfused through vWf (100 μg/ml) coated microcapillary tubes and analysis of cytosolic calcium flux conducted in real-time by confocal microscopy.
Washed platelets (1.5×10^9) suspended in PWB were incubated with the calcium indicator dyes, Oregon Green 488 BAPTA-1, AM (1 μM) and Fura Red, AM (1.25 μM), for 30 min at 37° C. Platelets were washed twice with PWB prior to being resuspended in Tyrode's buffer containing 1 mM calcium.
For static adhesion assays, platelets were allowed to settle on the surface of vWf-coated coverslips for 30 min at 37° C. For flow assays, platelets were either perfused over a vWf-coated microcapillary tube at a constant shear rate of 600, 1800 or 10,000 s^−1 or allowed to settle on the surface of a vWf-coated microcapillary tube prior to being accelerated through a shear gradient of 10,000 s^−1 over a 1 s interval. Real time platelet calcium flux in individual platelets was monitored at 1 s intervals over the 30 min incubation period or at 0.586 s intervals for up to 175 s for static and flow-based assays, respectively.

Sequence of p110γ-PI3K (P48736 whole entry, canonical isoform): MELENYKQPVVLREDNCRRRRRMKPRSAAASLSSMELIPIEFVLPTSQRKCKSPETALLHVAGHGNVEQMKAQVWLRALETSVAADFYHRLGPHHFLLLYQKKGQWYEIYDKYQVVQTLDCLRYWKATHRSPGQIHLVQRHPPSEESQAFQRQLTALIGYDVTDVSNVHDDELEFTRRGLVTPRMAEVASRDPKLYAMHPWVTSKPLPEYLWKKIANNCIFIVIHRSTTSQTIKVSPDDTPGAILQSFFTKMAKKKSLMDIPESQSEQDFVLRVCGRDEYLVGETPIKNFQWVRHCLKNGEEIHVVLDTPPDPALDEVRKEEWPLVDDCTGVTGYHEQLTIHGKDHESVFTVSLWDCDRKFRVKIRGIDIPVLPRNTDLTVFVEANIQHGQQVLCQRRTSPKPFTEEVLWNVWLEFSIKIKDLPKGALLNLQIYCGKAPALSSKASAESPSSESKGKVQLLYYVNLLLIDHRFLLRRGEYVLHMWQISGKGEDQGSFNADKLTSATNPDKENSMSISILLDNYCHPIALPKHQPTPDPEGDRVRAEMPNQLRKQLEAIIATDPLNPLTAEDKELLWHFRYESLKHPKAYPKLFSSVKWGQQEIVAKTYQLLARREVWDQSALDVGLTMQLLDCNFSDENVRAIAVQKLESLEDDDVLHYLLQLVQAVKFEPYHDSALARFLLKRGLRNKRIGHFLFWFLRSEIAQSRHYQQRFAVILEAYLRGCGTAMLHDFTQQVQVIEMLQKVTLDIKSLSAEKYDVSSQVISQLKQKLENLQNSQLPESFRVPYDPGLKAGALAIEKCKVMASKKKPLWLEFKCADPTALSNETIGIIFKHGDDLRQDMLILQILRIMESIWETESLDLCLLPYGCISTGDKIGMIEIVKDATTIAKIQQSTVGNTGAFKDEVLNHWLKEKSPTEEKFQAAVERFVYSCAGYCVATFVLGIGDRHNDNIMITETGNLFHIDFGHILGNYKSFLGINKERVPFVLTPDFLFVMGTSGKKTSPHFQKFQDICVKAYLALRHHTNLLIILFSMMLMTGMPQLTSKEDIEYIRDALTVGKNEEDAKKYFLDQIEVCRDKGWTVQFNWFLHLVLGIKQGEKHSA
T3 sequence (O00329 whole entry): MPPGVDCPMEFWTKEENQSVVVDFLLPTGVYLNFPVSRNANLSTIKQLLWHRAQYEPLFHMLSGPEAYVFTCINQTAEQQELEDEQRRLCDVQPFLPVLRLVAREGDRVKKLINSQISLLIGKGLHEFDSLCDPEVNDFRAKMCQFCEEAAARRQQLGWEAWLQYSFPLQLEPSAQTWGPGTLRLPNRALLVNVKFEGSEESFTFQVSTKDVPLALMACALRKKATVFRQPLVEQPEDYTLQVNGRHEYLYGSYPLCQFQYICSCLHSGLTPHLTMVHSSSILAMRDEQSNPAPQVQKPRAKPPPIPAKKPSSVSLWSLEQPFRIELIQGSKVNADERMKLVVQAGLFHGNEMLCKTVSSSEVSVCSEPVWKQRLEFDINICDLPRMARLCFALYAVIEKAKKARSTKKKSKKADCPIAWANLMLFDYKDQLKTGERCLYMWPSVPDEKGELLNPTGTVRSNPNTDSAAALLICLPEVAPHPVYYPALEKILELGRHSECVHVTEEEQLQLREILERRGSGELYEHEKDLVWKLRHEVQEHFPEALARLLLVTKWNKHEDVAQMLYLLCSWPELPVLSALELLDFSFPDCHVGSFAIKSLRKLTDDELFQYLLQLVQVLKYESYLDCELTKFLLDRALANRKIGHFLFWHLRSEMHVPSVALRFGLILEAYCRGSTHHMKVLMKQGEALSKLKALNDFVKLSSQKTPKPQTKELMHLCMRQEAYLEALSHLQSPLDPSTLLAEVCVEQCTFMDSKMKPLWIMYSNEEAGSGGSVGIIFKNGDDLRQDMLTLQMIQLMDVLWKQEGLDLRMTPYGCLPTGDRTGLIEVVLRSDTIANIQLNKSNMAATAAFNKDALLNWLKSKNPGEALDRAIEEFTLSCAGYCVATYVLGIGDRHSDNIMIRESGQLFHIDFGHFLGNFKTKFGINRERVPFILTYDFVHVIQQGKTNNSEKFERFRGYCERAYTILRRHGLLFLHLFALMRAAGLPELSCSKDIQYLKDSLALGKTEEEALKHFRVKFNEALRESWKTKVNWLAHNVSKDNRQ
T3 sequence (P27986 whole entry partner): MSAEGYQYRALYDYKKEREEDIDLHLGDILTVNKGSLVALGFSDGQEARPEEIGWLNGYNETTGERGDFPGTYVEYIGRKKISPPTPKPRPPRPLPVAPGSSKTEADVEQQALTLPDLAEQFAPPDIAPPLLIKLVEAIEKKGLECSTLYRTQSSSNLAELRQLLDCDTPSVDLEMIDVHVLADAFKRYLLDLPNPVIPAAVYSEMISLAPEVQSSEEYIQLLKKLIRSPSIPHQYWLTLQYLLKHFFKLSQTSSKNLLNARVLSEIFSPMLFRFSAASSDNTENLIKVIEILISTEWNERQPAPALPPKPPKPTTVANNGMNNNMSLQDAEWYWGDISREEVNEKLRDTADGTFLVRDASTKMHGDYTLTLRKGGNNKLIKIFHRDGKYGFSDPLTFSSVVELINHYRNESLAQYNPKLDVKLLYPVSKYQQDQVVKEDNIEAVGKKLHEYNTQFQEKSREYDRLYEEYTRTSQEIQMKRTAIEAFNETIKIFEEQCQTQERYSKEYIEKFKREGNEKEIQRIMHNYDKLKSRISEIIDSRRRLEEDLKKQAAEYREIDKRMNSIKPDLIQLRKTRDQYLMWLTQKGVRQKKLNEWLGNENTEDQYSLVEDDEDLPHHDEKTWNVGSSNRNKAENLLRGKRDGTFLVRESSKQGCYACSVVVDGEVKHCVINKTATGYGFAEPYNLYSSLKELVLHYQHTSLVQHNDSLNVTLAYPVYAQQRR
T1 sequence (P42336 whole entry, canonical isoform): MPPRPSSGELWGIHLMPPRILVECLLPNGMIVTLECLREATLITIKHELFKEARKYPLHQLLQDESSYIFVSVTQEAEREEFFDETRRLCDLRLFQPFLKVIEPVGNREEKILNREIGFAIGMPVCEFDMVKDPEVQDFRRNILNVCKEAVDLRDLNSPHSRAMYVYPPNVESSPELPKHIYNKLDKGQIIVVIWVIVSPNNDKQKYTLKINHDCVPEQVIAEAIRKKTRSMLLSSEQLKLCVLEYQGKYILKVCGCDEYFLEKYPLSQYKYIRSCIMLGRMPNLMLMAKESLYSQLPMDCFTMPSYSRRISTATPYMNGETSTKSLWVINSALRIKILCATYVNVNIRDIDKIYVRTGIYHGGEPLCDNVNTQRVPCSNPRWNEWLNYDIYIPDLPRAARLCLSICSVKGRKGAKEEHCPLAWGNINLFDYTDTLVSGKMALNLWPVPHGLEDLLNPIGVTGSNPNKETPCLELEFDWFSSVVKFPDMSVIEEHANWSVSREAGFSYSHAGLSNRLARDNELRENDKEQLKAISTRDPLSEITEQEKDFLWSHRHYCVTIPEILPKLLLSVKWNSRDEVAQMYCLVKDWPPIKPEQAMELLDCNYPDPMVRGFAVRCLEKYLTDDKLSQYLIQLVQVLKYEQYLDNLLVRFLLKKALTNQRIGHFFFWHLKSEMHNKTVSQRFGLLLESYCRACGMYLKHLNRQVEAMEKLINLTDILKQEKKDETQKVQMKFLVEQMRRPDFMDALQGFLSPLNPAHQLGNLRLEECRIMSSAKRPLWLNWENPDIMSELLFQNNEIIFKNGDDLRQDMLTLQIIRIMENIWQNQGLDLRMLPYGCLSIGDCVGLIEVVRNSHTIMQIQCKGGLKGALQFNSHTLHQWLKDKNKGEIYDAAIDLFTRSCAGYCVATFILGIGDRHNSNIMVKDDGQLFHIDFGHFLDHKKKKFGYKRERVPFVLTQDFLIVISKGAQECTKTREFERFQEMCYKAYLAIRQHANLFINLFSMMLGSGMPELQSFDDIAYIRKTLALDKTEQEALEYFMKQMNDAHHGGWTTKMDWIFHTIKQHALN
T1 sequence (P27986 whole entry partner, canonical isoform): as the sequence (P27986 whole entry partner) above
T2 sequence (P42338 whole entry, canonical isoform): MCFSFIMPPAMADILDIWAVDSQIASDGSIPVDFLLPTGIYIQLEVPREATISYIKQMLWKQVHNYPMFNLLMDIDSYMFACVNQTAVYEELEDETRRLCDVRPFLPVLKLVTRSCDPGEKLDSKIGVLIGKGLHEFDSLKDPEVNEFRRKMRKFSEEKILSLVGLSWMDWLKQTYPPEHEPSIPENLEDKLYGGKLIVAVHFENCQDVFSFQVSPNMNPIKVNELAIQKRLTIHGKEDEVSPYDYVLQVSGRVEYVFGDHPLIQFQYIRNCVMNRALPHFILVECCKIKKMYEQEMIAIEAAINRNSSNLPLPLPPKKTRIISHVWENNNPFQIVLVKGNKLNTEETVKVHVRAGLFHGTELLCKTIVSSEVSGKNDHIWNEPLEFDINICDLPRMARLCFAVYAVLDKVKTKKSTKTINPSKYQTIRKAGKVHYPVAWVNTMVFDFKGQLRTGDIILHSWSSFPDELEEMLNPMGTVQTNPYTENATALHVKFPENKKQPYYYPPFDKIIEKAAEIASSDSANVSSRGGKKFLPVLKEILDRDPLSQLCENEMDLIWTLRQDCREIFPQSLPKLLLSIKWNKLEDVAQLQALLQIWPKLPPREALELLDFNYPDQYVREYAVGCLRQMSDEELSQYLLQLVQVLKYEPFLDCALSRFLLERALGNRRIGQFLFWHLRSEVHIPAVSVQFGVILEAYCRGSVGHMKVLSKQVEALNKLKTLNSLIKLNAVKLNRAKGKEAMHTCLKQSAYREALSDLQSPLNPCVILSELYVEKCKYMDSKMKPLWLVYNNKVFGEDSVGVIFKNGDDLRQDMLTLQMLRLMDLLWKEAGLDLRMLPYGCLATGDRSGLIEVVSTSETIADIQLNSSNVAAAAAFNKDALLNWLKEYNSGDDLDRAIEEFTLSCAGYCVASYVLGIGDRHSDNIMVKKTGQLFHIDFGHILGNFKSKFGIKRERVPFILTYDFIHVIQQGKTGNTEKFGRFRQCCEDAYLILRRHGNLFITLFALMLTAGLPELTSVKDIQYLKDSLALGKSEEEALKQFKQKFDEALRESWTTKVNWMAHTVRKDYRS
T2 sequence (P27986 whole entry partner, canonical isoform): as the sequence (P27986 whole entry partner) above

| Structure (SMILES) | IC50 [1] [nM] | Ratio δ/β [2] | IC50 [2] [nM] | IC50 [3] [nM] | IC50 [4] [nM] | platelet responses to accelerated shear [5] |
| --- | --- | --- | --- | --- | --- | --- |
| Cc1cc(C(C)Nc2cc(F)cc(F)c2)c2nc(N3CCOCC3)cc(=O)n2c1 (racemic) [TGX-239, (±)-9-[1-(3,5-difluorophenylamino)ethyl]-7-methyl-2-morpholin-4-yl-pyrido[1,2-a]pyrimidin-4-one] | > 5000 | 11.43 | 7 | > 5000 | 80 |  |
| Cc1cc(C(C)Nc2ccccn2)c2nc(N3CCOCC3)cc(=O)n2c1 (racemic) [TGX-295, (±)-7-methyl-2-morpholin-4-yl-9-[1-(2-pyridinylamino)ethyl]-pyrido[1,2-a]pyrimidin-4-one] | > 5000 | 40.00 | 50 | > 5000 | 2000 |  |
| Cc1cccc(NC(C)c2cc(C)cn3c(=O)cc(N4CCOCC4)nc23)c1 (racemic) [TGX-262, (±)-7-methyl-9-[1-(3-methylphenylamino)ethyl]-2-morpholin-4-yl-pyrido[1,2-a]pyrimidin-4-one] | > 5000 | 20.00 | 50 | > 5000 | 1000 |  |
| COC[C@H]1OC(=O)c2coc3c2[C@@]1(C)C1=C(C3=O)[C@@H]2CCC(=O)[C@@]2(C)C[C@H]1OC(C)=O [wortmannin, reference compound] |  |  |  |  |  | eliminates platelet responses to accelerated shear |
| Cc1cc(CN(C)c2ccccc2)c2nc(N3CCOCC3)cc(=O)n2c1 (racemic) [TGX-195, (±)-7-methyl-9-{[methyl(phenyl)amino]methyl}-2-morpholin-4-yl-pyrido[1,2-a]pyrimidin-4-one] | > 5000 | 25.00 | 20 | > 5000 | 500 |  |
| Cc1cc(C(C)Nc2cccc(C(F)(F)F)c2)c2nc(N3CCOCC3)cc(=O)n2c1 (racemic) [TGX-264, (±)-7-methyl-2-morpholin-4-yl-9-[1-(3-trifluoromethylphenylamino)ethyl]-pyrido[1,2-a]pyrimidin-4-one] | > 5000 | 133.33 | 75 | > 5000 | 10000 |  |

The next lines start with results.

| IC50 [1] [nM] | Ratio δ/β [2] | IC50 [2] [nM] | IC50 [3] [nM] | IC50 [4] [nM] | Structure (SMILES) | platelet responses to accelerated shear [5] |
| --- | --- | --- | --- | --- | --- | --- |
| > 5000 | 10.00 | 10 | > 5000 | 100 | Cc1cc(C(C)Nc2cccc(Cl)c2)c2nc(N3CCOCC3)cc(=O)n2c1 (racemic) [TGX-248, (±)-9-[1-(3-chlorophenylamino)ethyl]-7-methyl-2-morpholin-4-yl-pyrido[1,2-a]pyrimidin-4-one] |  |
| > 5000 | 20.00 | 50 | > 5000 | 1000 | Cc1cc(C(C)Nc2ccc(Cl)c(Cl)c2)c2nc(N3CCOCC3)cc(=O)n2c1 (racemic) [TGX-244, (±)-9-[1-(3,4-dichlorophenylamino)ethyl]-7-methyl-2-morpholin-4-yl-pyrido[1,2-a]pyrimidin-4-one] |  |
| > 5000 | 40.00 | 50 | > 5000 | 2000 | Cc1cc(C(C)Nc2ccc(Cl)cc2)c2nc(N3CCOCC3)cc(=O)n2c1 (racemic) [TGX-243, (±)-9-[1-(4-chlorophenylamino)ethyl]-7-methyl-2-morpholin-4-yl-pyrido[1,2-a]pyrimidin-4-one] |  |
